Results on 27 molecules are retold here after the Deep4Chem optical property database.

“And” between values parts separate entries of the source, which are not always exact repeats. Equal entries are not always repeated.

This data set can be described thus: solvent given as SMILES.

In the case of `CC1(C)C(/C=C/C2=C(c3ccc(C(=O)O)cc3)C(=C/C=C3/N(CCCCS(=O)(=O)[O-])c4ccc(S(=O)(=O)[O-])cc4C3(C)C)/CCC2)=[N+](CCCCS(=O)(=O)[O-])c2ccc(S(=O)(=O)[O-])cc21`, under “in CO”, the emission maximum is 785 nm and 790 nm.
With `CSc1ccc2cc(C#N)c3ccc4ccccc4c3c2c1`, the emission maximum (in ClC(Cl)Cl) is recorded as 403 nm.
With `CC1(C)c2ccccc2N(c2ccc(-c3nnc(-c4ccccc4)o3)cc2)c2ccccc21`, the emission maximum by setting is: (in Cc1ccccc1) 450 nm; (in c1ccc(-n2c(-c3c(-n4c5ccccc5c5ccccc54)cccc3-n3c4ccccc4c4ccccc43)nc3ccccc32)cc1) 455 nm.
Where the note is “in Cc1ccccc1”, `CC1(C)c2ccccc2N(c2ccc3c(c2)C2(c4cc(N5c6ccccc6C(C)(C)c6ccccc65)ccc4-3)c3ccccc3S(=O)(=O)c3ccccc32)c2ccccc21` registered an emission maximum of 437 nm.
As for `O=P1(c2ccccc2)C2=C(c3ccccc31)[Si](c1ccccc1)(c1ccccc1)c1cc(N(c3ccccc3)c3ccccc3)ccc12` (stereo unspecified), the emission maximum by setting is: (in CC#N) 629 nm; (in CO) 640 nm; (in Cc1ccccc1) 558 nm.
In turn, `COc1ccc(-c2nc3c(c4c2-c2ccccc2CC4)-c2ccccc2CC3)cc1` registered an emission maximum (in C1CCOC1) of 420 nm; an emission maximum (in CC#N) of 416 nm; an emission maximum (in CCCCCC) of 408 nm; an emission maximum (in CCOC(C)=O) of 425 nm; an emission maximum (in CO) of 428 nm; an emission maximum (in CS(C)=O) of 415 nm. Also, the emission maximum is on record as 419 nm (in Cc1ccccc1) and 424 nm (in ClCCl).
Consider `CCN(CC)c1ccc(/N=N/c2nc3ccc([N+](=O)[O-])cc3s2)cc1`, for which the emission maximum is, setting by setting: (in CC#N) 607 nm; (in ClCCl) 603 nm.
For the molecule `CCOC(=O)COc1ccc(/C=C/c2c(CC)c(C)c3n2[B-](F)(F)[N+]2=C(c4[nH]c(C)c(CC)c4C)c4ccccc4C2=C3C)cc1`, the emission maximum runs as follows: (in C1CCOC1) 709 nm; (in CC#N) 707 nm; (in CCCCCC) 698 nm; (in CO) 711 nm; (in Cc1ccccc1) 709 nm; (in ClCCl) 714 nm.
As to `CCC(CC)COC1=CC2=C3c4cc(OCC(CC)CC)c(-c5ccccc5)n4[B-](F)(F)[n+]4nnn(c43)[B-](F)(F)[N+]2=C1c1ccccc1`, the emission maximum was found to be 725 nm (in C1CCOC1), 721 nm (in CC#N) and 730 nm (in ClCCl).
For the molecule `C#CCNC1=C2C=C(c3cc4n(c3)[B-](F)(F)[N+]3=CC=CC3=C4c3c(C)cc(C)cc3C)C(C)=[N+]2[B-](F)(F)n2c(C)ccc21`, the emission maximum stood at 633 nm (in C1CCCCC1) and 690 nm (in CCOC(C)=O).
For the molecule `CC1(C)c2ccccc2N(c2ccc(-c3cc(C#N)c(C#N)cc3-c3ccc(N4c5ccccc5C(C)(C)c5ccccc54)cc3)cc2)c2ccccc21`, the emission maximum reads like this: (in Cc1ccccc1) 532 nm; (in c1cc(-c2cccc(-n3c4ccccc4c4ccccc43)c2)cc(-n2c3ccccc3c3ccccc32)c1) 499 nm.
Take `CN(C)c1ccc(/C=C2\CC/C(=C\c3ccc(C#N)cc3)C2=O)cc1`: the emission maximum is, setting by setting: (in C1CCOC1) 651 nm; (in CC#N) 721 nm; (in CC(C)=O) 718 nm; (in CC(C)O) 647 nm; (in CCCCO) 648 nm; (in CCCCOC(C)=O) 631 nm. The emission maximum (in CCCO) is 644 nm; the emission maximum (in CCO) is 659 nm; the emission maximum (in CCOC(=O)c1ccccc1) was 641 nm; the emission maximum (in CCOC(C)=O) is given as 643 nm; the emission maximum (in CCOCC) was 580 nm; the emission maximum (in CN(C)C=O) is 740 nm. Moreover, the emission maximum reads like this: (in CO) 693 nm; (in CS(C)=O) 731 nm; (in Cc1ccccc1) 558 nm; (in ClC(Cl)(Cl)Cl) 513 nm; (in ClC(Cl)Cl) 603 nm; (in ClCCl) 643 nm. The emission maximum was 625 nm (in Clc1ccccc1Cl); 678 nm (in O=C1CCCC1); 535 nm (in S=C=S); 569 nm (in c1ccccc1); 673 nm (in c1ccncc1).
In turn, `Cc1ccc(-c2sc(/C(C#N)=C/c3ccc(C#N)cc3)nc2-c2ccc(Cl)cc2)cc1` came in with an emission maximum (in CC#N) of 535 nm.
For the molecule `C[n+]1ccnc(/C=C/c2ccc(N(c3ccccc3)c3ccc(/C=C/c4c[n+](C)ccn4)cc3)cc2)c1`, the emission maximum reads like this: (in CS(C)=O) 530 nm; (in OCC(O)CO) 690 nm.
Regarding `CCCCCCCCCCn1c(-c2cc(-c3nc4ccccc4n3CCCCCCCCCC)cc(-c3nc4ccccc4n3CCCCCCCCCC)c2)nc2ccccc21`, the emission maximum (in C1CCOC1) was 360.5 nm.
In turn, `O=c1oc2ccccc2c2c1c(=O)oc1c3ccccc3cc(O)c12` yielded an emission maximum (in ClCCl) of 533 nm.
With `CC(C)[Si](C#Cc1c2nsnc2c(C#C[Si](C(C)C)(C(C)C)C(C)C)c2nc3c(ccc4cc5ccccc5cc43)nc12)(C(C)C)C(C)C`, the emission maximum (in CCCCCC) is listed as 605 nm.
Where the note is “in ClCCl”, `COc1cc2c(cc1OC)C1=C[C@H](c3ccccc3)C3(C(C#N)=C(C#N)N1CC2)c1cc(Br)ccc1-c1ccc(Br)cc13` showed an emission maximum of 403 nm.
With `N#C/C(=C\c1ccccc1)c1nc2ccccc2s1`, for the setting “in C1CCCCC1”, the emission maximum is on record as 430 nm.
For the molecule `CCN(CC)c1cc2oc3cc(N(CC)CC)c(F)cc3c(=O)c2cc1F`, for the setting “in CCO”, the emission maximum is recorded as 452 nm.
Molecule `COCCOCCOCCOCC(COCCOCCOCCOC)Oc1cc(/C=C/c2ccc(C=C(C#N)C#N)cc2)c(OC(COCCOCCOCCOC)COCCOCCOCCOC)cc1/C=C/c1ccc(C=C(C#N)C#N)cc1` returned an emission maximum (in ClCCl) of 596 nm.
`C[Si]1(C)c2cc(-c3ccc(-c4cccs4)s3)ccc2C=Cc2ccc(-c3ccc(-c4cccs4)s3)cc21` yielded an emission maximum (in ClCCl) of 463 nm.
As to `COCc1ncc(-c2c3ccccc3c(-c3cnc(COC)nc3)c3ccccc23)cn1`, the emission maximum is, setting by setting: (in CCO) 420 nm; (in ClCCl) 420 nm.
In the case of `Cc1cc(O)c(C(=O)/C=C/c2ccccc2Cl)c(=O)o1`, the emission maximum by setting is: (in CC#N) 481 nm; (in ClCCl) 469 nm.
As for `CN(C)C(=O)c1ccc(-c2nc3ccc(N(C)C)cc3s2)cc1`, the emission maximum is 415 nm (in C1CCCCC1); 521 nm (in CC#N); 518 nm (in CC(C)O); 543 nm (in CO); 534 nm (in CS(C)=O); 472 nm (in ClC(Cl)Cl). The emission maximum (in c1ccccc1) is listed as 457 nm.
For the setting “in Cc1ccccc1”, `c1ccc(-c2nc(-c3ccccc3)nc(-c3ccc(-n4c5ccccc5c5c4c4ccccc4n5-c4ccccc4)cc3)n2)cc1` yielded an emission maximum of 526 nm.
In turn, `CCNc1ccc2c(C(F)(F)F)cc(=O)oc2c1` came in with an emission maximum (in C1CCC2CCCCC2C1) of 420 nm; an emission maximum (in C1CCCCC1) of 417 nm; an emission maximum (in CC1CCCCC1) of 417 nm; an emission maximum (in CC#N) of 485 nm; an emission maximum (in CC(C)=O) of 485 nm; an emission maximum (in CC(C)O) of 490 nm. Also, the emission maximum is reported as 415 nm (in CCC(C)CC); 415 nm (in CCCC(C)C); 417 nm (in CCCCCC); 490 nm (in CCCCCCO); 493 nm (in CCCCO); 500 nm (in CCO). Moreover, the emission maximum is, setting by setting: (in CCOC(C)=O) 478 nm; (in CO) 500 nm.
